Assays:
[1] = system: MCF-7 cells; design: method as in Patel et al. (2004); conditions: inhibition of cell proliferation by 50%; ref Patel et al. (2004); read-out: Cellular IC50, MCF-7; cited from earlier work
[2] = system: CK 8/18; experiment: Western immunoblotting for CK 8/18 in MCF-7 and T47D cells; type: cell-based, human; conditions: 6 days; for Increase in expression of CK 8/18 compared with control: 1 and 5 μM, MCF-7 and T47D cells; for Effect on expression of CK 8/18 (in words): 5 μM, MCF-7 cells
Description: At the end of the treatment, cells were scrapped and collected by washing with ice-cold PBS in a centrifuge tube. Cells were centrifuged at 2500 r.p.m. for 10 min, the pellet was again washed with ice-cold PBS and centrifuged. The cell pellet was then suspended in chilled cell lysis buffer (0.1 M Tris–HCl, 0.5% Triton X-100, protease inhibitor cocktail) and sonicated on ice for 10–15 s. The homogenate was kept on ice for 30 min and then centrifuged at 13 000 r.p.m. for 30 min. The supernatant was used as cell lysate. The cell lysates were stored at −80°C. Protein concentration of the cell lysates was determined using Bio-Rad protein assay reagents.
Protein lysates from MCF-7 and T47D cells were subjected to sodium dodecyl sulphate–polyacrylamide gel electrophoresis (SDS–PAGE) and immunoblotted for different proteins. Equal amounts of protein (25–50 μg) were subjected to SDS–PAGE at 60 V for 3 h using the mini PROTEAN3 electrophoresis module assembly (Bio-Rad, Hercules, CA, USA), and transferred to nitrocellulose membranes (Hybond ECL, Amersham). Immunodetections were carried out using antibodies against CK 8/18 (1° antibody – 1 : 8000 in 10% milk PBST), E-cadherin (1° antibody – 1 : 1000 in 5% milk in TBST) and ER-α (1° antibody – 1 : 200 in 5% milk PBST) purchased from Santa Cruz Biotechnology Inc. Antibodies against PARP (1° antibody – 1 : 1000 in 5% milk TBST), cyclin- D1 (1° antibody – 1 : 2000 in 10% milk TBST), caspase-9 (1° antibody – 1 : 1000 in 10% milk TBST) and BAD (1° antibody – 1 : 1000 in 5% BSA TBST) were obtained from Cell Signaling Technology. Antibody for β-actin was obtained from Calbiochem (CA, USA). Secondary anti-mouse IgG HRP conjugate antibody was purchased from Calbiochem and Bio-Rad. Secondary anti-rabbit IgG HRP conjugate antibody was bought from Bio-Rad as well as from Kirkegaard and Perry laboratories (Gaithersburg, MD, USA). Immunoreactive bands were visualised using the enhanced chemiluminescence detection reagents and analysis system (Amersham Bioscences) according to the manufacturer's instructions and quantified by densitometry using ImageQuant software version 5.
The effects of these agents on the expression levels of markers associated with differentiation (CK 8/18 and ER-α) were investigated following established procedures ([Jing et al, 1996]; [Korsching et al, 2002]; [Kim and Freeman, 2003]; [Woelfle et al, 2004]). […] At the end of the treatment, cell lysates were prepared and the expression of cytoskeletal proteins CK 8/18 were evaluated by Western immunoblotting. […] Unexpectedly, VN/66-1 and VN/69-1 caused downregulation in the expression of CK 8/18.
Numbers below the blot show fold increase in expression of the protein as analysed by ImageQuant densitometry analysis. […]

[3] = target: T1, RARα (Mus musculus, UniProt P11416); experiment: Retinoid receptor competition binding assay, RARα; design: The full-length cDNA clones for RARα, RARβ, RARγ and RXRα were cloned into the prokaryotic expression vector pET29; S-Tag; made in house; host or cells: prokaryotic host (pET29 vector); conditions: competition with 1.0 nM [3H]-all-trans-RA
T1 sequence (P11416 1-462): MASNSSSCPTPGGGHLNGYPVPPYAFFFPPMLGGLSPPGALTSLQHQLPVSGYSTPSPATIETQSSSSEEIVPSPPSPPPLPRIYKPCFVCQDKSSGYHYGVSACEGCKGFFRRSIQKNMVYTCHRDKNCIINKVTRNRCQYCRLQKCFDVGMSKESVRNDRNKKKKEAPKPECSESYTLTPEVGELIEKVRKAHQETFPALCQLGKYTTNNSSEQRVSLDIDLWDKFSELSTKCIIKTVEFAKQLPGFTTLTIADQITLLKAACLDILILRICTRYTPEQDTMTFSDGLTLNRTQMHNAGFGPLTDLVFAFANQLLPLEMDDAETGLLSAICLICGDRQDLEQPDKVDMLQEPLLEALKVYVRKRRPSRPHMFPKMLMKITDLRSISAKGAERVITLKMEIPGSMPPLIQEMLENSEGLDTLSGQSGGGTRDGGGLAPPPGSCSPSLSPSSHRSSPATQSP

[4] = target: T2, RXRα (Homo sapiens, UniProt P19793); experiment: Retinoid receptor competition binding assay, RXRα; conditions: competition with 1.0 nM [3H]-9-cis-RA
T2 construct: The full-length cDNA clones for RARα, RARβ, RARγ and RXRα were cloned into the prokaryotic expression vector pET29; S-Tag; made in house; host or cells: prokaryotic host (pET29 vector)
T2 sequence (P19793 1-462): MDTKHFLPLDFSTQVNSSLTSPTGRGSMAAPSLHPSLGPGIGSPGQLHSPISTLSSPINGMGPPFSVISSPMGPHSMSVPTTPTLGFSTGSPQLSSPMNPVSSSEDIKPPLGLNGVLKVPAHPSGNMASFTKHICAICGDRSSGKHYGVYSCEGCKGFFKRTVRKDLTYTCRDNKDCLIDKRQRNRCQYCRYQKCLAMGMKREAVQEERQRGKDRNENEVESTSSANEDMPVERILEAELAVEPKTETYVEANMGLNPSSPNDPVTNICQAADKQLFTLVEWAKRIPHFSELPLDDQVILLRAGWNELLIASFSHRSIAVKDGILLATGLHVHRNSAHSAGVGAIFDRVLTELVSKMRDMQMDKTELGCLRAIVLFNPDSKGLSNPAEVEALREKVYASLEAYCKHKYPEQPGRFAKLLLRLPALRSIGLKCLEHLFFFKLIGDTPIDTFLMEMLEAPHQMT

Question: What does the source list for CC1=C(/C=C/C(C)=C/C=C/C(C)=C/C(=O)O)C(C)(C)CCC1 [ATRA, all-trans-retinoic acid, reference compound]?
Answer: IC50 [1]: 585 nM; Increase in expression of CK 8/18 compared with control [2]: 2–3 fold

Question: Which IC50 [3] does the source give for CC1=C(/C=C/C(C)=C/C=C/C(C)=C/C(=O)O)C(C)(C)CCC1n1ccnc1 (centres unmarked) [VN/14-1] here?
Answer: 16 nM

Question: And the IC50 [1]?
Answer: 494 nM

Question: What about the IC50 [4] of the same molecule?
Answer: > 500 nM

Question: And the “Increase in expression of CK 8/18 compared with control” value [2]?
Answer: 2–3 fold

Question: What does the source list for CC1=C(/C=C/C(C)=C/C=C/C(C)=C/C(=O)Nc2ccc(O)cc2)C(C)(C)CCC1n1ccnc1 (centres unmarked) [VN/66-1]?
Answer: IC50 [3]: > 1000 nM; IC50 [1]: 590 nM; IC50 [4]: > 500 nM; Effect on expression of CK 8/18 (in words) [2]: downregulation

Question: Which IC50 [3] does the source give for CC1=C(/C=C/C(C)=C/C=C/C(C)=C\C(=O)Nc2ccc(O)cc2)C(C)(C)CCC1n1ccnc1 (centres unmarked) [VN/69-1] here?
Answer: > 1000 nM

Question: And the IC50 [1]?
Answer: 609 nM

Question: And the IC50 [4]?
Answer: > 500 nM

Question: What about the “Effect on expression of CK 8/18 (in words)” value [2] of the same molecule?
Answer: downregulation

— PMC2360155, “Novel retinoic acid metabolism blocking agents have potent inhibitory activities on human breast cancer cells and tumour growth” (British Journal of Cancer, 2007)
